# Assays:
# [1] = disclosed in U.S. Pat. No. 9,045,474; cited from earlier work
# human keratinocytes = test: lifespan of human keratinocytes with YEL002; format: cell-based; conditions: application of the active ingredient YEL002
structure (smiles),measurement,setting,value
COc1ccc2cc(-c3nc4ccc(C)cn4c3NCc3ccco3)c(=O)[nH]c2c1 [YEL002],mitigating tissue damage induced by an agent,[1],effective in mitigating tissue damage
same,human keratinocytes live longer (anti-aging),human keratinocytes,15%
